Reference: ChEMBL document CHEMBL1136426, “Synthesis and collateral dilator activity of nitroxyalkylamides having direct or latent sulfhydryl moieties” (2003)

Experiments:
[1] = tested on: Canis familiaris; test: Collateral index in anesthetized dog at the dose of 0.01 mg/kg, i.v. after 60 minutes of administration; format: functional, Canis lupus familiaris; conditions: route intravenous
[2] = tested on: Canis familiaris; test: Maximum […] was measured in anesthetized dog as percent at the dose of 0.01 mg/kg, i.v.; format: functional, Canis lupus familiaris; conditions: route intravenous
[3] = species: Canis familiaris; test: Ratio of the CIAUC value to that of nitroglycerin (NTG ratio); format: functional, Canis lupus familiaris
[4] = tested on: Canis familiaris; test: Maximum collateral index in anesthetized dog at the dose of 0.01 mg/kg, i.v.; format: functional, Canis lupus familiaris; conditions: route intravenous
[5] = tested on: Canis familiaris; test: Maximum collateral index in anesthetized dog at the dose of 0.03 mg/kg, i.v.; format: functional, Canis lupus familiaris; conditions: route intravenous
[6] = tested on: Canis familiaris; test: Collateral index in anesthetized dog at the dose of 0.03 mg/kg, i.v. after 60 minutes of administration; format: functional, Canis lupus familiaris; conditions: route intravenous
[7] = tested on: Canis familiaris; test: Maximum […] was measured in anesthetized dog as percent at the dose of 0.03 mg/kg, i.v.; format: functional, Canis lupus familiaris; conditions: route intravenous
[8] = Nitroglycerin ratio to that was measured; format: functional

Row | Structure (SMILES) | Collateral index [1] | Max hypotension [2] | NG ratio [3] | Max collateral index [4] | Max collateral index [5] | Collateral index [6] | Max hypotension [7] | NG ratio [8]
1 | CC(=O)N[C@@H](CSC(=O)c1cccnc1)C(=O)NCCO[N+](=O)[O-] | 9 | -24% | 1.1 | 20 |  |  |  | 
2 | CC[C@@H](CO[N+](=O)[O-])NC(=O)[C@@H]1CSC(=O)N1 |  |  | 0.5 |  | 7 | 7 | -1% | 
3 | C[C@@H](CO[N+](=O)[O-])NC(=O)[C@H]1CSC(=O)N1 |  |  | 0.3 |  | 5 | 3 | -1% | 
4 | O=C1N[C@H](C(=O)NCCO[N+](=O)[O-])CS1 | 16 | -8% | 1.9 | 23 |  |  |  | 
5 | O=C1NC(C(=O)NCCO[N+](=O)[O-])C(c2cccc3ccccc23)S1 (centres undefined) | 9 | -2% |  | 9 |  |  |  | 0.5
6 | CCC[C@@H](CO[N+](=O)[O-])NC(=O)[C@@H]1CSC(=O)N1 |  |  | 1.3 |  | 18 | 17 | -7% | 
7 | O=C1NC(C(=O)NCCO[N+](=O)[O-])C(c2cccs2)S1 (centres undefined) | 3 | 0% | 0.5 | 8 |  |  |  | 
8 | C[C@@H](CO[N+](=O)[O-])NC(=O)[C@@H]1CSC(=O)N1 |  |  | 1.1 |  | 16 | 15 | -5% | 
9 | C[C@H](CO[N+](=O)[O-])NC(=O)[C@H]1CSC(=O)N1 |  |  | 0.4 |  | 6 | 5 | -3% | 
10 | CC(CNC(=O)[C@@H]1CSC(=O)N1)O[N+](=O)[O-] (some centres undefined) | 0 | 0% | 0 | 0 |  |  |  | 
11 | CC(=O)N[C@@H](CSC(=O)C(C)(C)C)C(=O)NCCO[N+](=O)[O-] | 8 | -23% | 2.5 | 45 |  |  |  | 
12 | O=C1NC(C(=O)NCCO[N+](=O)[O-])C(c2ccccc2)S1 (centres undefined) |  |  | 1 |  | 18 | 9 | -6% | 
13 | O=[N+]([O-])OCC(CO[N+](=O)[O-])O[N+](=O)[O-] [NITROGLYCERIN] |  |  | 1 |  | 33 | 4 | -55% | 
14 | O=C1N[C@@H](C(=O)NCCO[N+](=O)[O-])CS1 |  |  | 0.8 |  | 14 | 11 | -8% | 
15 | O=C1NC(C(=O)NCCO[N+](=O)[O-])C(Cc2ccccc2)S1 (centres undefined) | 7 | -3% | 1 | 12 |  |  |  | 
16 | CCCC[C@@H](CO[N+](=O)[O-])NC(=O)[C@@H]1CSC(=O)N1 |  |  | 1.6 |  | 21 | 17 | -4% | 

Row | Structure (SMILES) | Collateral index [1] | Max hypotension [2] | NG ratio [3] | Max collateral index [4] | Max collateral index [5] | Collateral index [6] | Max hypotension [7] | NG ratio [8]
17 | CC(=O)N[C@@H](CSC(=O)OC(C)(C)C)C(=O)NCCO[N+](=O)[O-] | 11 | -8% | 0.8 | 21 |  |  |  | 
18 | C[C@@H]1SC(=O)N[C@@H]1C(=O)NCCO[N+](=O)[O-] | 4 | -2% | 0.5 | 9 |  |  |  | 
19 | CC1(C)SC(=O)N[C@@H]1C(=O)NCCO[N+](=O)[O-] |  |  | 0.6 |  | 9 | 8 | -2% | 
20 | C[C@H](CO[N+](=O)[O-])NC(=O)[C@@H]1CSC(=O)N1 |  |  | 0.9 |  | 12 | 12 | -4% | 
21 | CC(=O)N[C@@H](CS)C(=O)NCCO[N+](=O)[O-] | 9 | -52% | 1.9 | 39 |  |  |  | 
22 | O=C1N[C@H](C(=O)NCCCCO[N+](=O)[O-])CS1 | 0 | 0% | 0 | 2 |  |  |  | 
23 | CC(C)C(=O)N[C@@H](CSC(=O)C(C)C)C(=O)NCCO[N+](=O)[O-] | 9 | -14% | 1.5 | 25 |  |  |  | 
24 | CC(=O)N[C@@H](CSC(C)=O)C(=O)NCCO[N+](=O)[O-] | 6 | -44% | 2 | 52 |  |  |  | 
25 | O=C(N[C@@H](CS)C(=O)NCCO[N+](=O)[O-])c1cccnc1 | 0 | -3% | 0 | 2 |  |  |  | 
26 | CC(=O)N[C@@H](CSC(=O)c1ccccc1)C(=O)NCCO[N+](=O)[O-] | 5 | -28% | 2.1 | 49 |  |  |  | 
27 | CC(=O)N[C@@H](CSC(=O)OCC(C)C)C(=O)NCCO[N+](=O)[O-] | 6 | -12% | 1.3 | 25 |  |  |  | 
28 | CCOC(=O)SC[C@H](NC(C)=O)C(=O)NCCO[N+](=O)[O-] | 16 | -18% | 2.4 | 39 |  |  |  | 
29 | O=C1NC(C(=O)NCCO[N+](=O)[O-])C(c2cccnc2)S1 (centres undefined) | 0 | -4% |  | 2 |  |  |  | 0.1
30 | O=C1NC(C(=O)NCCO[N+](=O)[O-])C(c2ccco2)S1 (centres undefined) |  |  | 0.4 |  | 6 | 3 | -3% | 
31 | O=C1N[C@H](C(=O)NCCCO[N+](=O)[O-])CS1 |  |  | 0.1 |  | 4 | 6 | 0% | 
